As a reminder, the Ki is the equilibrium dissociation constant of an inhibitor or competing ligand from its target.

Molecules are shown by their SMILES. Like-named read-outs stand apart in the source and are kept apart here.

Results on 6 compounds are retold here after patent US12344614B2, “Benzodiazepine derivatives as GABA a GAMMA1 PAM” (Hoffmann-La Roche Inc., priority 2021, dated 2025).

One experiment deals with h-GABA-A α2β2γ1 receptor (Homo sapiens (Human), UniProt P47869+Q8N1C3). As to the kind of experiment: Two-electrode voltage clamp electrophysiology in Xenopus oocytes expressing GABAA receptors. To be noted: for Efficacy (GABA) %: % modulation of GABA EC20 = 100*(Fold increase−1), compound at 30-fold Ki α2β2γ1; for Fold increase h-GABA-A α2β2γ1 oocyte @ 30-fold Ki: Xenopus oocytes, GABA EC20, test compound at approx. 30-fold its Ki α2β2γ1. The format is cell-based. On the technique in general: Two-electrode voltage clamp is typically applied to oocytes expressing channels or transporters.

The target of experiment [1] is human GABAA α1β2γ1 receptor (Homo sapiens (Human), UniProt P14867+Q8N1C3). Briefly: Radioligand binding assay, competition for [3H]RO7239181, membranes from HEK293F cells.

Regarding `O=c1ccn2c(n1)CN=C(c1cc(O)ccc1F)c1c-2ccc(C(F)(F)F)c1Cl` [Example 11, 8-chloro-7-(2-fluoro-5-hydroxy-phenyl)-9-(trifluoromethyl)-5H-pyrimido[1,2-a][1,4]benzodiazepin-3-one], on h-GABA-A α2β2γ1 receptor, the “Efficacy (GABA) %” value was found to be 68% and the “Fold increase h-GABA-A α2β2γ1 oocyte @ 30-fold Ki” value turned out to be 1.68. Also, in experiment [1], the Ki is 5.17 nM.

Consider `Cc1nnc2n1-c1ccc(Cl)c(Cl)c1C(c1cc(O)ccc1F)=N[C@H]2C` [Example 4, 4-fluoro-3-[(4S)-7,8-dichloro-1,4-dimethyl-4H-[1,2,4]triazolo[4,3-a][1,4]benzodiazepin-6-yl]phenol], for which, on h-GABA-A α2β2γ1 receptor, the “Efficacy (GABA) %” value came to 33% and the “Fold increase h-GABA-A α2β2γ1 oocyte @ 30-fold Ki” value is reported as 1.33. Besides, the affinity in experiment [1] corresponds to a Ki of 3.35 nM.

In the case of `Cc1cn2c(n1)[C@H](C)N=C(c1nc(O)ccc1F)c1c-2ccc(C(F)(F)F)c1Cl` [Example 28, 6-[(4S)-7-chloro-2,4-dimethyl-8-(trifluoromethyl)-4H-imidazo[1,2-a][1,4]benzodiazepin-6-yl]-5-fluoro-pyridin-2-ol], at h-GABA-A α2β2γ1 receptor, the “Efficacy (GABA) %” value came out at 68% and the “Fold increase h-GABA-A α2β2γ1 oocyte @ 30-fold Ki” value was 1.68. Besides, the affinity in experiment [1], expressed as Ki, was 19.9 nM.

Consider `CN1C(=O)CN=C(c2cc(O)ccc2F)c2c1ccc(Cl)c2Cl` [Example 1, 6,7-dichloro-5-(2-fluoro-5-hydroxy-phenyl)-1-methyl-3H-1,4-benzodiazepin-2-one], for which, at h-GABA-A α2β2γ1 receptor, the “Efficacy (GABA) %” value came to 90% and the “Fold increase h-GABA-A α2β2γ1 oocyte @ 30-fold Ki” value amounted to 1.90. For the same compound, affinity in experiment [1] was put at a Ki of 2.9 nM. In addition, in experiment [1] (read-out: Ki h-GABAA α1β2γ1, [3H]RO7239181 20-30 nM, HEK293F membranes, 1 hour at 4° C., mean of two determinations), the inhibitory constant (Ki) was 2.9 nM.

As to `Cc1nnc2n1-c1ccc(C(F)(F)F)c(Cl)c1C(c1nc(O)ccc1Cl)=N[C@H]2C` [Example 22, 5-chloro-6-[(4S)-7-chloro-1,4-dimethyl-8-(trifluoromethyl)-4H-[1,2,4]triazolo[4,3-a][1,4]benzodiazepin-6-yl]pyridin-2-ol], on h-GABA-A α2β2γ1 receptor, the “Efficacy (GABA) %” value was found to be 84% and the “Fold increase h-GABA-A α2β2γ1 oocyte @ 30-fold Ki” value turned out to be 1.84. Moreover, in experiment [1], the inhibitory constant (Ki) came out at 42.5 nM.

Turning to `Cc1ccc2c(c1Cl)C(c1cc(O)ccc1F)=NCC(=O)N2C` [Example 2, 6-chloro-5-(2-fluoro-5-hydroxy-phenyl)-1,7-dimethyl-3H-1,4-benzodiazepin-2-one], at h-GABA-A α2β2γ1 receptor, the “Efficacy (GABA) %” value came out at 70% and the “Fold increase h-GABA-A α2β2γ1 oocyte @ 30-fold Ki” value was 1.70. In experiment [1], this compound came in with a Ki of 3.49 nM.
